Entries after “also recorded” stand apart in the source; their conditions may differ. Values belong to the molecule of their own block, whether it stands above or below them.
Key:
IDO [1] = assay: MLR with sorted mouse tumor-draining lymph node cell fractions and BM3 T cell responders, with or without 1MT; assay type: cell-based
Excerpt: (§1) Lymph node (LN) cells were harvested from inguinal LNs draining established B78.GM tumors. Control cells were harvested from the contralateral inguinal nodes in the same mouse. LN cells were irradiated and used as stimulators in allo-MLRs, with the responder cells being TCR-transgenic CD8^+ T cells from BM3 mice, as BM3 T cells recognize H-2K^b as an alloantigen (Tarazona, R., et al., Int. Immunol., 8:351-358, (1996)), and thus are reactive with all MHC class I positive cells from C57BL/6 tumor-bearing hosts. These cells are known by those of skill in the art to be a recognized assay system for IDO-mediated suppression of the T cell response (Munn, D. H., et al., Science, 297:1867-1870, (2002); Lee et al., Immunol., 107:1-9, (2002)). […] To determine the etiology of T cell suppression by APCs, tumor draining lymph node cells were harvested from B78.GM tumors and sorted into a B220^+ CD11c^+ plasmacytoid dendritic cell (pDC) fraction and a CD25^+CD4^+ regulatory T-cell (Treg) fraction. A third “all other” fraction was also collected. Each fraction was used as stimulators in an MLR with BM3 responders. […] Pooled draining LN cells (4 nodes) were stained and fractionated by 4-color cell sorting for the two populations shown in the top schematic. All other cells were collected in a third fraction. Each fraction was then used as stimulators in MLRs (FIG. 13), using 50,000 BM3 T cells as responders. The number of stimulators used in each MLR was adjusted to be the same as would have been present in 50,000 cells of the original LN preparation, based on the measured percentage of each sorted fraction. Thus, in the experiment shown, 500 cells of the sorted B220^+ CD11c^+ fraction were added per well, and 1500 cells of the CD25^+ CD4^+ fraction, while 48,000 cells of the “all other” fraction were used.

IDO [2] = molecular target: T1, IDO (Mus musculus, UniProt P28776); assay: as above; assay type: cell-based; conditions: wild-type host, B78.GM tumor-draining LN
T1 construct: from tissue; host or cells: tumor-draining inguinal lymph node cells (sorted fractions) of C57BL/6 mice bearing B78.GM tumors
T1 sequence (P28776 whole entry): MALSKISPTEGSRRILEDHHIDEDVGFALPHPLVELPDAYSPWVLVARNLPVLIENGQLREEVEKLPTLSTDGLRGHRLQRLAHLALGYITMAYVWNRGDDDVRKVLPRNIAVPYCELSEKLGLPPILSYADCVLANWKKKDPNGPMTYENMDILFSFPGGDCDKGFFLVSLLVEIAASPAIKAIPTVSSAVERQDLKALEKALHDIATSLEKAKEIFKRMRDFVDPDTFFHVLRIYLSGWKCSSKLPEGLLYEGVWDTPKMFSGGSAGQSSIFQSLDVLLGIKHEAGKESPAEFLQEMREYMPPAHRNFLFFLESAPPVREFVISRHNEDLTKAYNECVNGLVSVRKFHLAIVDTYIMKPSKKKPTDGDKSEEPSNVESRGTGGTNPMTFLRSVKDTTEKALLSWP
Excerpt: as §1

CCR6 receptor = molecular target: T2, CCR6 receptor (Homo sapiens, UniProt P51684); assay: Mip-3α gradient migration of mixed DCs with or without blocking anti-CCR6 antibody (Example 9); assay type: cell-based
T2 construct: a mixture of both CD123-positive (CCR6-positive) and CD123-negative (CCR6-negative) cells; endogenous in cells; host or cells: human monocyte-derived dendritic cells (mixed adherent and non-adherent fractions)
T2 sequence (P51684 1-374): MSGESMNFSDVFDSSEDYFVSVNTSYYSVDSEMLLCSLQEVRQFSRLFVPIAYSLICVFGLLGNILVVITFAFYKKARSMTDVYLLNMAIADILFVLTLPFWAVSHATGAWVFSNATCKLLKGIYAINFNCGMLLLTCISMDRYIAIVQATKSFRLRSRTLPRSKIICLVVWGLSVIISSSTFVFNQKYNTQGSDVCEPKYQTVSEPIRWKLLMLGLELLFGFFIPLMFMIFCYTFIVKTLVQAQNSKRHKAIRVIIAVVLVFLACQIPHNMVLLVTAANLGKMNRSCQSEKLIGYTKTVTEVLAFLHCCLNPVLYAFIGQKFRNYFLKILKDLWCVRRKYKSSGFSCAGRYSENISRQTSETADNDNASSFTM
Excerpt: Monocyte-derived human dendritic cells (adherent and non-adherent fractions) were harvested and pooled, as described in Example 8, yielding a preparation comprising a mixture of both CD123-positive (CCR6-positive) and CD123-negative (CCR6-negative) cells. In Example 8, it was shown that a gradient of mip-3α caused selective migration of the CD123+ (CCR6+) population.
The mixed population of DCs was allowed to migrate across a porous membrane in response to a gradient of mip-3alpha, as described in Example 8. Different treatment groups received a commercial anti-CCR6 antibody (10 ug/ml), an isotype-matched control antibody at the same concentration, or no antibody. After 18 hrs, migrating cells (recovered in the lower chamber of the chemotaxis assay apparatus) were harvested, counted, and analyzed by flow cytometry for CD123 expression. CD123 was used as a marker to identify the IDO-expressing population, rather than CCR6, because the anti-CCR6 blocking antibody could artifactually interfere with immunofluorescent staining for CCR6. Since both markers are co-expressed on the IDO+ cells with a one-to-one correspondence, either marker gives equivalent information.

CCR6^+/IDO^+ APCs = assay: Mip-3α-induced chemotaxis of dendritic cells, upper/lower chamber (Example 8); assay type: cell-based, human; conditions: 0.5×10^6 DCs/well, after 4 hours
Experimental: In this experiment, mip-3α-induced chemotaxis of CCR6^+/IDO^+ APCs was measured. Dendritic cells matured with a cytokine cocktail as described herein were used for a chemotaxis assay with mip-3α as the chemoattractant. Thus, monocytes were cultured in serum free medium (X-Vivo15) for five days in the presence of GMCSF (50 ng/mL) and IL-4 (50 ng/mL). After five days, cells were treated with a cytokine cocktail consisting of IL-1β (1870 U/mL), IL-6 (1000 U/mL), TNFα (1100 U/mL) and prostaglandin E2 (PGE2; 1.0 μg/mL), for two days. The cells were harvested and used for the chemotaxis assay. Control starting DCs were immunostained for CD123 and CCR6 (“Pre-Chemotaxis DCs”).
Mip-3α (0.5 μg/mL) was added to the different chambers and a defined number of DCs (0.5×10^6/well) were put on the upper chamber. After 4 hours, cells were counted in lower chamber of each group (Table 2). FACS immunostain was performed on all groups for CCR6 and CD123 (FIG. 7). […] Migration required a gradient of mip-3α from the upper chamber to the lower chamber, consistent with ligand induced chemotaxis.

CXCR4 = molecular target: T3, CXCR4 (Homo sapiens, UniProt P61073); assay: Yeast (S. cerevisiae) pheromone-pathway signaling assay with expressed CXCR4; assay type: cell-based; conditions: yeast strains expressing CXCR4-WT; not in control cells lacking the receptor
T3 construct: expressed in transfected cells; host or cells: Saccharomyces cerevisiae, CXCR4 subcloned in the Cp4258 vector, coupled through a mammalian/yeast hybrid G subunit
T3 sequence (P61073 whole entry, species assumed): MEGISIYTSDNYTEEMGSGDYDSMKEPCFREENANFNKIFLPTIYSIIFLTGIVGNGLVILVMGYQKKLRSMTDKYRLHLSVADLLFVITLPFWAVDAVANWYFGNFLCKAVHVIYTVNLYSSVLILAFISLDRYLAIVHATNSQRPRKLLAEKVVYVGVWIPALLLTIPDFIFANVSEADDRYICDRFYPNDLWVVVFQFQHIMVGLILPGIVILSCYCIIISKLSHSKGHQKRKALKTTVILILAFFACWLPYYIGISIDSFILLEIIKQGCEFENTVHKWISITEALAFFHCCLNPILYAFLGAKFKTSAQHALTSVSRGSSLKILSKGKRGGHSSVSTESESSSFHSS
Excerpt: For example, CCR6 can be functionally expressed in S. cerevisiae for the purpose of screening putative antagonists and for generating constitutively active mutants (CAMs). Similar studies have been performed by the inventors using related […] receptors CXCR4 and CCR5. Thus, chemokine receptors CXCR4 and CCR5 were expressed in a yeast strain in which these guanine nucleotide protein receptors (GPRs) were coupled to the mating pheromone response pathway by a mammalian/yeast hybrid G subunit. Consequently, stimulation of CXCR4 and CCR5 by the cognate ligands (SDF-1 and RANTES, respectively) activated signal transduction that results in histidine prototrophy or, in strains also carrying a pheromone-responsive FUS1-lacZ reporter gene, beta-galactosidase expression. In these experiments, SDF-1 stimulated histidine-independent growth and reporter gene expression in yeast strains expressing CXCR4-WT, but not in control cells lacking the receptor. […] All available CXCR4 antagonists blocked growth in histidine deficient medium resulting from CXCR4 activation and the induction of reporter gene expression stimulated by SDF-1.

Suppression by B220+ CD11c+ (pDC) fraction (IDO [2]): fully reversed
Molecule: Cn1cc(CC(N)C(=O)O)c2ccccc21 (centres unmarked) [1-MT, 1-methyl-(D,L)-tryptophan]
Effect on MLR with LN fractions from IDO-knockout host (IDO [1]; IDO-KO host, any group): no enhancing effect
Suppression mediated by CD25+ CD4+ Tregs (IDO [1]; wild-type host, B78.GM tumor-draining LN): not affected
IDO-mediated suppression in mixing experiments (pDCs plus "all other" fraction) (IDO [2]): can be fully reversed; also recorded: again fully reversed

Increase of migration of CD123+ cells (CCR6 receptor; gradient of mip-3α, 18 hrs): > 10 fold
Purity of CD123+ cells in migrated population (CCR6 receptor; gradient of mip-3α, starting population 68% CD123+): 96%
Mip-3α induced migration without gradient (CCR6 receptor; mip-3α present on both sides of the membrane): substantially reduced
Molecule: Mip-3α: chemokine, ligand for the CCR6 chemokine receptor; chemotactic factor for immature dendritic cells
Number of Cells in Lower Chamber (CCR6^+/IDO^+ APCs; Mip-3α (0.5 μg/mL) in lower chamber only (gradient)): 2.96
Number of Cells in Lower Chamber (CCR6^+/IDO^+ APCs; Mip-3α (0.5 μg/mL) in upper and lower chamber): 0.98
Number of Cells in Lower Chamber (CCR6^+/IDO^+ APCs; Mip-3α (0.5 μg/mL) in upper chamber only): 0.73

Histidine-independent growth and reporter gene expression (CXCR4): stimulated
Molecule: SDF-1: cognate ligand of CXCR4
